In publication PMC11799985 (ACS Omega, 2024):
Values joined by “and” are separate entries in the source; they are usually repeats but may differ in a detail not shown here. Equal values may be shown once. Read-outs that look alike come from different tables or passages of the source.

Key:
L. donovani amastigote = tested on: L. donovani amastigote; set-up: method as in PMID 26014945, PMID 29357372, PMID 28241112, PMID 19937668, PMID 19060927; conditions: cited from earlier work
L. infantum amastigote = tested on: L. infantum amastigote; set-up: method as in PMID 26014945, PMID 29357372, PMID 28241112, PMID 19937668, PMID 19060927; conditions: cited from earlier work
LiSir2rp1 = tested on: LiSir2rp1; set-up: method as in PMID 26014945, PMID 29357372, PMID 28241112, PMID 19937668, PMID 19060927; conditions: cited from earlier work
T. cruzi = tested on: T. cruzi; set-up: method as in PMID 34936867; conditions: T. cruzi-infected mice; cited from earlier work
TbSir2rp1 [1] = biological target: T1, TbSir2rp1 (Trypanosoma brucei brucei, UniProt Q57V41); assay: biochemical; conditions: for ligand efficiency (LE): LE = –R·T·ln(IC50)/HAC, from TbSir2rp1 IC50; for IC50: TbSir2rp1, enzyme 1 μM, NAD+ 100 μM, acetylated peptide 50 μM, 37 °C, 2 h, read-out: IC50; for Hill coefficient (nH): concentration–response curve against TbSir2rp1
T1 construct: The TbSir2rp1 gene was cloned into the pET24(+) expression plasmid (Novagen); His tag; made in house; host or cells: Escherichia coli BL21-Codon Plus (DE3)-RIL
T1 sequence (Q57V41 1-351): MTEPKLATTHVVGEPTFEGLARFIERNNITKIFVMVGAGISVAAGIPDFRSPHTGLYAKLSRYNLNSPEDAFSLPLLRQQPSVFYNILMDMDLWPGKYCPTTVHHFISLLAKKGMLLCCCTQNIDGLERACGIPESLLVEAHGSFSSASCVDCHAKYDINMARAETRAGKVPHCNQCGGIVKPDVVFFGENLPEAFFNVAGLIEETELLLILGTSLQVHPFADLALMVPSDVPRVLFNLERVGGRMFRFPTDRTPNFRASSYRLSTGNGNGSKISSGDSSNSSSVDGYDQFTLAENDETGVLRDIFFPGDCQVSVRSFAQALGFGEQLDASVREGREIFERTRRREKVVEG
Procedure: The acetylated peptide corresponds to the sequence Abz-Gly-Pro-acetylLys-SerGln–EDDnp, where Abz is ortho-aminobenzoic acid and EDDnp is N-[2,4-dinitrophenyl]ethylenediamine.
To halt the deacetylation reaction, 4 mM nicotinamide was used. For each pair of wells in the 96-well plate, 0.2 mg/mL of trypsin was added to only one well to hydrolyze the acetylated peptide, enabling fluorescence emission. Fluorescence was measured immediately at 420 nm with excitation at 320 nm using a SpectraMax M2 microplate reader (Molecular Devices).
Deacetylation activity was determined by the difference between the well where trypsin was added and the well without trypsin. All assays were performed in triplicate, and activity values were reported as means ± standard deviations with outliers identified and excluded from the calculations. Statistical analyses were conducted using Prism 7 software (GraphPad).
The screening of the 90 fragments was performed at a single concentration of 500 μM in triplicate. The enzyme was used at 1 μM, and the substrates NAD^+ and acetylated peptide were used at 100 and 50 μM, respectively. Incubation was carried out at 37.0 °C for 2 h. Each fragment was added to a pair of wells, with trypsin being added to only one well, as previously described for inhibitory activity calculation. […] Ligand efficiency (LE) was calculated as LE = –R·T·ln(IC50)/HAC using IC50 values instead of KD for comparison. […] The inhibition mechanism was characterized using Lineweaver–Burk plots under five concentrations of each substrate and three concentrations of the fragment. IC50 values were determined with at least seven different concentrations, and Lineweaver–Burk analysis used six concentrations.

TbSir2rp1 [2] = biological target: T1, TbSir2rp1; assay: biochemical; type: biochemical
T. cruzi amastigote = tested on: T. cruzi amastigote; set-up: method as in PMID 26014945, PMID 29357372, PMID 28241112, PMID 19937668, PMID 19060927; conditions: cited from earlier work
T. cruzi epimastigote = tested on: T. cruzi epimastigote; set-up: method as in PMID 26014945, PMID 29357372, PMID 28241112, PMID 19937668, PMID 19060927; conditions: cited from earlier work
[3] = tested on: human lung cells (WI-26VA-4); set-up: method as in PMID 33295837; conditions: WI-26VA-4 human lung cells; cited from earlier work
TcSir2rp3 = tested on: TcSir2rp3; set-up: method as in PMID 26014945, PMID 29357372, PMID 28241112, PMID 19937668, PMID 19060927; conditions: cited from earlier work
infected mice = conditions: cited from earlier work
T. brucei = tested on: T. brucei; set-up: method as in PMID 7097719; conditions: cited from earlier work
[4] = read-out: % Inhibition TbSir2rp1, Table S2, complete fragment library, single concentration of 500 μM
[5] = read-out: % Inhibition TbSir2rp1 at 500 μM, Table 1, fragment 500 μM, triplicate, mean ± SD

SMILES: O=c1[nH]c(=S)[nH]c(-c2ccccc2)c1Cc1c(O)ccc2ccccc12 [cambinol]
- EC50 (L. donovani amastigote): 1.7 µM

SMILES: CC(NC(=O)c1ccccc1/N=C/c1c(O)ccc2ccccc12)c1ccccc1 (stereo not shown) [sirtinol]
- EC50 (L. infantum amastigote): 30 µM
- IC50 (LiSir2rp1): 194 µM
- EC50 (L. donovani amastigote): 5 µM

SMILES: O=C(/C=C/c1cccc2c1oc1ccccc12)NO [TB56]
- parasite burden (T. cruzi): reduced parasite burden

SMILES: Cc1cc(NS(=O)(=O)c2ccc(N)cc2)no1 [sulfamethoxazole, reference compound]
- inhibition of TbSir2rp1 (in words) (TbSir2rp1 [1]): did not induce any inhibition
- inhibition at 100 µM (TbSir2rp1 [2]; read-out: % inhibition at 100 µM, Table S3, sulfonyl-hydrazone series, single concentration of 100 μM): 2 ± 5.3%

SMILES: Cc1cc(C)nc(NS(=O)(=O)c2ccc(N)cc2)n1 [sulfamethazine]
- % inhibition at 100 µM (TbSir2rp1 [2]; Table S3, sulfonyl-hydrazone series, single concentration of 100 μM): Inconc.

SMILES: O=C1c2cccc3cccc(c23)C(=O)N1CCCNCCCCNCCCNCCCN1C(=O)c2cccc3cccc(c23)C1=O [BNIPSpd]
- EC50 (T. cruzi amastigote): 2.8 µM
- EC50 (T. cruzi epimastigote): 13.3 µM

SMILES: Cc1ccc(S(=O)(=O)N/N=C/c2cccs2)cc1 [Fragment 2]
- ligand efficiency (LE) (TbSir2rp1 [1]): 0.31
- IC50 (TbSir2rp1 [1]): < 100 µM and 77.9 µM
- Hill coefficient (nH) (TbSir2rp1 [1]): 0.77
- inhibition at 500 µM (TbSir2rp1 [1]; [4]): 84 ± 2.3%
- inhibition at 500 µM (TbSir2rp1 [1]; [5]): 83.7 ± 2.3%
- CC50 [3]: 226 µM

SMILES: CC1(C)CCC2=C(O1)C(=O)c1ccccc1C2=O [O=C(C1=C2OC(C)(C)CC1)C3=CC=CC=C3C2=O]
- inhibition at 500 µM (TbSir2rp1 [1]; [4]): 33 ± 14%

SMILES: NC(=O)N1c2ccccc2CC(=O)c2ccccc21 [O=C(N)N1C2=CC=CC=C2CC(C3=CC=CC=C31)=O]
- inhibition at 500 µM (TbSir2rp1 [1]; [4]): 0.85 ± 6.5%

SMILES: O=[N+]([O-])c1cccc(C2=NCCO2)c1 [O=[N+](C1=CC=CC(C2=NCCO2)=C1)[O-]]
- inhibition at 500 µM (TbSir2rp1 [1]; [4]): 44 ± 24%

SMILES: O=C1Nc2ccccc2C1=O [O=C1NC2=C(C=CC=C2)C1=O]
- inhibition at 500 µM (TbSir2rp1 [1]; [4]): 49 ± 0.31%

SMILES: NNC(=O)/C=C/c1ccccc1 [NNC(/C=C/C1=CC=CC=C1)=O]
- inhibition at 500 µM (TbSir2rp1 [1]; [4]): 42 ± 8.5%

SMILES: O=c1[nH]nc(-c2ccccc2)[nH]1 [O=C1NC(C2=CC=CC=C2)=NN1]
- inhibition at 500 µM (TbSir2rp1 [1]; [4]): 0.91 ± 7.3%

SMILES: Cc1cccc(C)c1NC1=C(O)C(=O)c2ccccc2C1=O
- inhibition at 500 µM (TbSir2rp1 [1]; [4]): 39 ± 4.6%

SMILES: COC1=CC(=O)c2ccccc2C1=O [O=C(C1=C2C=CC=C1)C(OC)=CC2=O]
- inhibition at 500 µM (TbSir2rp1 [1]; [4]): 44 ± 3.7%

SMILES: O=C1C(O)=C(Nc2ccccc2)C(=O)c2ccccc21 [Fragment 13]
- inhibition at 500 µM (TbSir2rp1 [1]; [4]): 95 ± 4.9%
- inhibition at 500 µM (TbSir2rp1 [1]; [5]): 95.3 ± 4.9%

SMILES: Nc1ccc(S(=O)(=O)c2ccc(N)cc2)cc1 [NC1=CC=C(S(C2=CC=C(N)C=C2)(=O)=O)C=C1]
- inhibition at 500 µM (TbSir2rp1 [1]; [4]): 48 ± 4.1%

SMILES: Cc1ccc(S(=O)(=O)N(C)/N=C/c2cccs2)cc1 [Fragment 9]
- inhibition at 500 µM (TbSir2rp1 [1]; [4]): 65 ± 1.7%
- inhibition at 500 µM (TbSir2rp1 [1]; [5]): 64.8 ± 1.7%

SMILES: O=C(/C=C/c1ccccc1Cl)c1ccc2c(c1)OCO2 [Fragment 12]
- inhibition at 500 µM (TbSir2rp1 [1]; [4]): 102 ± 5.9%
- inhibition at 500 µM (TbSir2rp1 [1]; [5]): 102 ± 5.9%

SMILES: O=c1cc(-c2ccccc2)c2c(O)cc(O)cc2o1 [OC1=CC(O)=CC(O2)=C1C(C3=CC=CC=C3)=CC2=O]
- inhibition at 500 µM (TbSir2rp1 [1]; [4]): 17 ± 27%

SMILES: CC(C(=O)Nc1cccc(/N=C/c2c(O)ccc3ccccc23)c1)c1ccccc1 (stereo not shown) [salermide]
- IC50 (TcSir2rp3): 1 µM
- EC50 (T. cruzi epimastigote): 10.6 µM

SMILES: CC1(C)CCC2=C(O1)c1ccccc1C(=O)C2=O [O=C1C2=C(OC(C)(C)CC2)C3=CC=CC=C3C1=O]
- inhibition at 500 µM (TbSir2rp1 [1]; [4]): 43 ± 5.2%

SMILES: CNC(=O)c1c(C(C)C)oc2nc(N3CCCC3)ccc12 [O=C(NC)C1=C(C(C)C)OC2=C1C=CC(N3CCCC3)=N2]
- inhibition at 500 µM (TbSir2rp1 [1]; [4]): 47 ± 10%

SMILES: Cc1c(O)c2ccccc2c2nc(N)sc12 [Fragment 1]
- ligand efficiency (LE) (TbSir2rp1 [1]): 0.41
- IC50 (TbSir2rp1 [1]): 17.8 µM
- Hill coefficient (nH) (TbSir2rp1 [1]): 1.22
- inhibition at 500 µM (TbSir2rp1 [1]; [4]): 99 ± 0.47%
- inhibition at 500 µM (TbSir2rp1 [1]; [5]): 99 ± 0.5%
- maximum tolerated dose (infected mice): 50 mg/kg
- minimum lytic concentration (T. brucei): 100 µM

SMILES: CCN(CC)CCOC(=O)c1ccc(N)cc1 [O=C(OCCN(CC)CC)C1=CC=C(N)C=C1]
- inhibition at 500 µM (TbSir2rp1 [1]; [4]): 50 ± 11%

SMILES: CCOC(=O)c1c(C)oc2nc(Cl)ccc12 [CC1=C(C(OCC)=O)C2=C(O1)N=C(Cl)C=C2]
- inhibition at 500 µM (TbSir2rp1 [1]; [4]): -29 ± 18%

SMILES: Cc1cc(Cl)ncc1N [ClC1=NC=C(N)C(C)=C1]
- inhibition at 500 µM (TbSir2rp1 [1]; [4]): 8.8 ± 19%
